According to ChEMBL document CHEMBL3085635, “Synthesis of structurally diverse benzosuberene analogues and their biological evaluation as anti-cancer agents” (Bioorg Med Chem, 2013):

Columns and labels:
DU-145 = assay: Cytotoxicity against human DU145 cells after 48 hrs by SRB assay; type: functional
[1] = Inhibition of calf brain tubulin polymerization after 15 mins by UV-visible spectrophotometry; parameters: species or system Bos taurus
SK-OV-3 = assay: Cytotoxicity against human SKOV3 cells after 48 hrs by SRB assay; type: functional
NCI-H460 = assay: Cytotoxicity against human NCI-H460 cells after 48 hrs by SRB assay; type: functional

| Structure (SMILES) | GI50 (DU-145; Homo sapiens, DU-145, 48 h) [nM] | IC50 [1] [nM] | GI50 (SK-OV-3; Homo sapiens, SK-OV-3, 48 h) [nM] | GI50 (NCI-H460; Homo sapiens, NCI-H460, 48 h) [nM] | GI50 (DU-145) [nM] | GI50 (SK-OV-3) [nM] | GI50 (NCI-H460) [nM] |
| --- | --- | --- | --- | --- | --- | --- | --- |
| COc1ccc(C2=CCCCc3c2ccc(OC)c3OC)cc1OC | 42500 | > 40000 | > 89500 | > 136000 |  |  |  |
| COc1ccc2c(c1Cl)CCCC=C2c1cc(OC)c(OC)c(OC)c1 | 152 | 930 | 44.4 | 71.3 |  |  |  |
| COc1ccc2c(c1F)CCCC=C2c1cc(OC)c(OC)c(OC)c1 | 18.9 | 890 | 7.51 | 5.47 |  |  |  |
| COc1cc2c(c(OC)c1O)CCCC=C2c1cc(OC)c(OC)c(OC)c1 | 15700 | > 40000 | 7130 | 18000 |  |  |  |
| COc1cc(C2=CCCCc3ccccc32)cc(OC)c1OC | 22000 | > 40000 | 19100 | 32500 |  |  |  |
| COc1ccc(C2=CCCCc3c2ccc(OC)c3O)cc1OC | 109 | 740 | 33.4 | 262 |  |  |  |
| COc1cc(C2=CCCCc3c2cc(OC)c(OC)c3O)cc(OC)c1OC | 38400 | > 40000 | 18100 | 25900 |  |  |  |
| COc1cc(C2=CCCCc3c2ccc(OC)c3OP(=O)(O)O)cc(OC)c1OC | 9.51 | > 40000 |  | 7.96 |  |  |  |
| COc1ccc2c(c1N)CCCC=C2c1cc(OC)c(OC)c(OC)c1 |  | 1200 | 0.102 | 2.8 |  |  |  |
| COc1ccc2c(c1NC(=O)[C@@H](N)CO)CCCC=C2c1cc(OC)c(OC)c(OC)c1 [listing 1 of 2 here] |  |  |  |  | 70500 | 36800 | 39000 |
| COc1ccc2c(c1NC(=O)[C@@H](N)CO)CCCC=C2c1cc(OC)c(OC)c(OC)c1 [listing 2 of 2 here] | 69400 |  | 35000 | 53800 |  |  |  |
| COc1ccc2c(c1O)CCCC=C2c1cc(OC)c(OC)c(OC)c1 | 0.0249 | 1400 | 0.0543 | 0.0418 |  |  |  |
| COc1ccc(/C=C\c2cc(OC)c(OC)c(OC)c2)cc1O [COMBRETASTATIN A4] | 3.27 |  | 4.55 | 2.23 |  |  |  |
| COc1ccc(/C=C\c2cc(OC)c(OC)c(OC)c2)cc1OP(=O)(O)O [FOSBRETABULIN DISODIUM] | 3.23 | > 40000 | 1.19 | 1.94 |  |  |  |
